Measured values published in ChEMBL document CHEMBL3627622, “Exploration of labeling by near infrared dyes of the polyproline linker for bivalent-type CXCR4 ligands” (Bioorg Med Chem, 2015).

Target: C-X-C chemokine receptor type 4 (Homo sapiens, UniProt P61073)
Assay: Displacement of fluorescently-labeled-TZ14011 from CXCR4 in human Jurkat cells incubated for 30 mins by fluorescence analysis
Assay type: cell-based

Sequence of C-X-C chemokine receptor type 4 (P61073 whole entry): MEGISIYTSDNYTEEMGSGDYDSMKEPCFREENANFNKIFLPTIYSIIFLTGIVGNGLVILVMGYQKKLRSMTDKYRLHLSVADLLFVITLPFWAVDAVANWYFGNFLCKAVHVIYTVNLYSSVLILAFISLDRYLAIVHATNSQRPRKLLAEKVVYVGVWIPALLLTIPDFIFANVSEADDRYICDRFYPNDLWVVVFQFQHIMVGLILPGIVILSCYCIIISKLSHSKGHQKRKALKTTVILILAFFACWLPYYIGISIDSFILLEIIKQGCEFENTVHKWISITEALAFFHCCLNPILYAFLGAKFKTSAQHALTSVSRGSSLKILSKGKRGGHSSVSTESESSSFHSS

Compound	IC50
CC(=O)N[C@@H](CCCCNC(=O)CSC[C@H]1NC(=O)[C@H](Cc2ccc3ccccc3c2)NC(=O)[C@H](CCCNC(=N)N)NC(=O)[C@H](CCCNC(=N)N)NC(=O)[C@@H](Cc2ccc(O)cc2)NC1=O)C(=O)N1CCC[C@H]1C(=O)N1CCC[C@H]1C(=O)N1CCC[C@H]1C(=O)N1CCC[C@H]1C(=O)N1CCC[C@H]1C(=O)N1CCC[C@H]1C(=O)N1CCC[C@H]1C(=O)N1CCC[C@H]1C(=O)N1CCC[C@H]1C(=O)N1CCC[C@H]1C(=O)N1CCC[C@H]1C(=O)N1CCC[C@H]1C(=O)N1CCC[C@H]1C(=O)N1CCC[C@H]1C(=O)N1CCC[C@H]1C(=O)N1CCC[C@H]1C(=O)N1CCC[C@H]1C(=O)N1CCC[C@H]1C(=O)N[C@@H](CCCCNC(=O)CS[C@H]1NC(=O)[C@H](Cc2ccc3ccccc3c2)NC(=O)[C@H](CCCNC(=N)N)NC(=O)[C@H](CCCNC(=N)N)NC(=O)[C@@H](Cc2ccc(O)cc2)NC1=O)C(N)=O	44 nM
[N-]=[N+]=NCCCCCC(=O)NCCCC(=O)N[C@@H](CCCCNC(=O)CSC[C@H]1NC(=O)[C@H](Cc2ccc3ccccc3c2)NC(=O)[C@H](CCCNC(=N)N)NC(=O)[C@H](CCCNC(=N)N)NC(=O)[C@@H](Cc2ccc(O)cc2)NC1=O)C(=O)N1CCC[C@H]1C(=O)N1CCC[C@H]1C(=O)N1CCC[C@H]1C(=O)N1CCC[C@H]1C(=O)N1CCC[C@H]1C(=O)N1CCC[C@H]1C(=O)N1CCC[C@H]1C(=O)N1CCC[C@H]1C(=O)N1CCC[C@H]1C(=O)N1CCC[C@H]1C(=O)N1CCC[C@H]1C(=O)N1CCC[C@H]1C(=O)N1CCC[C@H]1C(=O)N1CCC[C@H]1C(=O)N1CCC[C@H]1C(=O)N1CCC[C@H]1C(=O)N1CCC[C@H]1C(=O)N1CCC[C@H]1C(=O)N[C@@H](CCCCNC(=O)CS[C@@H]1NC(=O)[C@H](Cc2ccc3ccccc3c2)NC(=O)[C@H](CCCNC(=N)N)NC(=O)[C@H](CCCNC(=N)N)NC(=O)[C@@H](Cc2ccc(O)cc2)NC1=O)C(N)=O	86 nM
